The values that follow are results of earlier work, collected in patent US20240401031A1, “Platform Using iPSC-Derived Cardiomyocytes Carrying Gene Variants as Models of Cardiac Disease and Drug-Response” (SRI INTERNATIONAL, priority 2021, published 2024).

Each structure is given as a SMILES string.

The conditions of the data set: source CredibleMeds.
Turning to `CC(C)(C)c1nc(-c2cccc(NS(=O)(=O)c3c(F)cccc3F)c2F)c(-c2ccnc(N)n2)s1` [Dabrafenib], the “Risk (Torsade de Pointes)” value is recorded as “(PR)”.
Take `C=C[C@H]1C[N@@]2CC[C@H]1C[C@@H]2[C@@H](O)c1ccnc2ccc(OC)cc12` [Quinidine]: the “Risk (Torsade de Pointes)” value is reported as “(KR)”.
Regarding `CNC[C@H](O)c1ccc(O)c(O)c1` [Epinephrine], the “Risk (Torsade de Pointes)” value is “(SR)”.
As for `Nc1nc(CC(=O)Nc2ccc(CCNC[C@H](O)c3ccccc3)cc2)cs1` [Mirabegron], the “Risk (Torsade de Pointes)” value is recorded as “(PR)”.
Consider `CCC[C@H](NC(=O)[C@@H]1[C@H]2CCC[C@H]2CN1C(=O)[C@@H](NC(=O)[C@@H](NC(=O)c1cnccn1)C1CCCCC1)C(C)(C)C)C(=O)C(=O)NC1CC1` [Telaprevir], for which the “Risk (Torsade de Pointes)” value is “(CR)”.
For `Clc1ccc(CCCOCCCN2CCCCC2)cc1` [Pitolisant], the “Risk (Torsade de Pointes)” value is reported as “(PR)”.
Regarding `CCC/N=C1\S/C(=C\c2ccc(OC[C@H](O)CO)c(Cl)c2)C(=O)N1c1ccccc1C` [Ponesimod], the “Risk (Torsade de Pointes)” value was “(PR)”.
As to `COc1ccc(Cc2nccc3cc(OC)c(OC)cc23)cc1OC` [Papaverine], the “Risk (Torsade de Pointes)” value is recorded as “(KR)”.
Regarding `O=C(O)c1cn(C2CC2)c2cc(N3CCNCC3)c(F)cc2c1=O` [Ciprofloxacin], the “Risk (Torsade de Pointes)” value is “(KR)”.
Consider `Cc1cc(C(C)(C)C)cc(C)c1CC1=NCCN1` [Xylometazoline], for which the “Risk (Torsade de Pointes)” value is on record as “(SR)”.
`CO[C@@H]1[C@H](N(C)C(=O)c2ccccc2)C[C@H]2O[C@]1(C)n1c3ccccc3c3c4c(c5c6ccccc6n2c5c31)C(=O)NC4` [Midostaurin]: the “Risk (Torsade de Pointes)” value is on record as “(PR)”.
Consider `CCN(c1cc(-c2ccc(CN3CCOCC3)cc2)cc(C(=O)NCc2c(C)cc(C)[nH]c2=O)c1C)C1CCOCC1` [Tazemetostat], for which the “Risk (Torsade de Pointes)” value is on record as “(PR)”.
As for `CC(C)(N)Cc1ccccc1` [Phentermine], the “Risk (Torsade de Pointes)” value is “(SR)”.
As for `COc1ccc(CC(C)(C)NC[C@H](O)c2cc(O)cc3c2OCC(=O)N3)cc1` [Olodaterol], the “Risk (Torsade de Pointes)” value was “(SR)”.
On to `O=C1CN2Cc3c(ccc(Cl)c3Cl)N=C2N1` [Anagrelide], for which the “Risk (Torsade de Pointes)” value is “(KR)”.
As for `COc1cccc2c1C(=O)c1c(O)c3c(c(O)c1C2=O)C[C@@](O)(C(=O)CO)C[C@@H]3O[C@H]1C[C@H](N)[C@@H](O)[C@H](C)O1` [Epirubicin], the “Risk (Torsade de Pointes)” value is listed as “(PR)”.
Regarding `CC(CCc1ccc(O)cc1)NCCc1ccc(O)c(O)c1` (stereo not shown) [Dobutamine], the “Risk (Torsade de Pointes)” value was “(SR)”.
For `Cc1cc(C(C)(C)C)c(O)c(C)c1CC1=NCCN1` [Oxymetazoline], the “Risk (Torsade de Pointes)” value is “(SR)”.
For the compound `COc1ccc2nc([S@@+]([O-])Cc3ncc(C)c(OC)c3C)[nH]c2c1` [Esomeprazole], the “Risk (Torsade de Pointes)” value is “(CR)”.
As to `CC1Cc2ccccc2N1NC(=O)c1ccc(Cl)c(S(N)(=O)=O)c1` (stereo not shown) [Indapamide], the “Risk (Torsade de Pointes)” value is on record as “(CR)”.
On to `COc1cc2nccc(Oc3ccc(NC(=O)C4(C(=O)Nc5ccc(F)cc5)CC4)cc3)c2cc1OC` [Cabozantinib], for which the “Risk (Torsade de Pointes)” value is recorded as “(PR)”.
Turning to `CC(C)Oc1ccc(-c2nc(-c3cccc4c3CC[C@@H]4NCCO)no2)cc1C#N` [Ozanimod], the “Risk (Torsade de Pointes)” value was “(PR)”.
As to `CC(C)C[C@H](NC(=O)[C@H](Cc1ccccc1)NC(=O)c1cnccn1)B(O)O` [Bortezomib], the “Risk (Torsade de Pointes)” value is given as “(PR)”.
In the case of `CNC[C@H](O)c1cccc(O)c1` [Phenylephrine], the “Risk (Torsade de Pointes)” value is recorded as “(SR)”.
With `OCCOCCN1CCN(C2=Nc3ccccc3Sc3ccccc32)CC1` [Quetiapine], the “Risk (Torsade de Pointes)” value is “(CR)”.
Regarding `O=C(CCCN1CC=C(n2c(=O)[nH]c3ccccc32)CC1)c1ccc(F)cc1` [Droperidol], the “Risk (Torsade de Pointes)” value is listed as “(KR)”.
For the compound `COc1ccc(OC)c(C(O)CNC(=O)CN)c1` (stereo not shown) [Midodrine], the “Risk (Torsade de Pointes)” value is “(SR)”.
On to `COc1c(N2CCNC(C)C2)c(F)cc2c(=O)c(C(=O)O)cn(C3CC3)c12` (stereo not shown) [Gatifloxacin], for which the “Risk (Torsade de Pointes)” value is reported as “(KR)”.
